Test results from PMC12343078, “PeptideMiner—neuropeptide discovery across the animal kingdom” (GigaScience, 2025).
Entries after “also recorded” stand apart in the source; their conditions may differ. Positions of bridges follow the written chain, without caps; N, C: chain ends. Non-standard residues stand in square brackets, D forms with d. Chains are numbered I, II in the order given. No end group written: not given here. Gla = N[C@@H](CC(C(=O)O)C(=O)O)C(=O)O

target: T1, human insulin receptor-B (hIR-B) (Homo sapiens, UniProt P06213); test: Competition binding to hIR-B against Eu-labeled human insulin
T1 construct: expressed in transfected cells; lysate captured on an anti-IR antibody-coated plate
Experimental: Receptor binding was measured as described previously. […] Cells were serum-starved for 4 hours before lysis. Lysates were captured in a 96-well plate previously coated with anti-IR antibody. […] After washing, time-resolved fluorescence was measured using 340-nm excitation and 612-nm emission filters with the BMG Lab Technologies Polarstar fluorometer.

T1 sequence (P06213 28-758 limits assumed): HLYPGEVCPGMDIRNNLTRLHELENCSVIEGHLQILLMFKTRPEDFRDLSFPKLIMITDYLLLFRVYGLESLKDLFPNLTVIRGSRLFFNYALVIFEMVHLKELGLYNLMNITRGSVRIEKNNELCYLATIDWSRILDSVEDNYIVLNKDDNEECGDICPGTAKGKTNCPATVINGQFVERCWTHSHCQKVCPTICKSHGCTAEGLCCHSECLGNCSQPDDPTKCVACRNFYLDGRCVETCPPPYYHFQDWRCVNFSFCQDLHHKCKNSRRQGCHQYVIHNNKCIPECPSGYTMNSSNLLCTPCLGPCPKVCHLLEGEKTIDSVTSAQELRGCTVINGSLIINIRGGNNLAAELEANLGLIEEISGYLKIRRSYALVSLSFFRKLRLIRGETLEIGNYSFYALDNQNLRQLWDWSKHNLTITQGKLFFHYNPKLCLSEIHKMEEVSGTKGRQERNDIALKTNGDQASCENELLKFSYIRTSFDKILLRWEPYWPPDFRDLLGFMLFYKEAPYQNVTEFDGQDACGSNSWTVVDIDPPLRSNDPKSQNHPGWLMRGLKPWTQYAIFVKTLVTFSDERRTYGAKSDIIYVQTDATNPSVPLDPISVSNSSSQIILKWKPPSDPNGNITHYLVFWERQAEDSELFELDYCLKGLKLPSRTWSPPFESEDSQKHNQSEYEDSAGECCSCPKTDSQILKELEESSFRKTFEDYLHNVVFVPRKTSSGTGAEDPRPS
T1 sequence (P06213 763-1382 limits assumed): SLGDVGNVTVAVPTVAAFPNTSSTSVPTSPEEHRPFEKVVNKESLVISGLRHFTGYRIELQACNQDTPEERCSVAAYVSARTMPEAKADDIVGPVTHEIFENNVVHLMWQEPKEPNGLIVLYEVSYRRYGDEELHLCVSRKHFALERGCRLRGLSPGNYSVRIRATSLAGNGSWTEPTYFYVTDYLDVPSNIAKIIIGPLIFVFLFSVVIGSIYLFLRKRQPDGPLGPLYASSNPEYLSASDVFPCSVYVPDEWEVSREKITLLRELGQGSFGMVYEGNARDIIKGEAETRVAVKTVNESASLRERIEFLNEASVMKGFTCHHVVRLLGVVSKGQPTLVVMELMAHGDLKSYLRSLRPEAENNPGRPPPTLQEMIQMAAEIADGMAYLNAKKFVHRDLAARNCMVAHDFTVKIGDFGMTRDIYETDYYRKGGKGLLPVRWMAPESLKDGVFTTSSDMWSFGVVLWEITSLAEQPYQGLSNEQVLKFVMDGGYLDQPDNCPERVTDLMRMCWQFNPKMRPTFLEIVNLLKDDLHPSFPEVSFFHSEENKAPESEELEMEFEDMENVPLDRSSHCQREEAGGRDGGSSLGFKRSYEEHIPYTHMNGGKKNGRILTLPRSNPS

| Substance | hIR-B binding, result in words |
| --- | --- |
| I: NSDTPKHRCGSELADQYVYLCHGERNDA-NH2 / II: GIV[Gla]VCCDNPCTVATLRTFCH (disulfide I:9-II:7, I:21-II:20, II:6-II:11; C-terminus assumed) [Con-Ins G4b] | low nanomolar binding |
| I: NSDTPKHRCVSELADQYVQLCH-NH2 / II: GIV[Gla]VCCDNPCTVATLRTFCH (disulfide I:9-II:7, I:21-II:20, II:6-II:11; C-terminus assumed) [Con-Ins G3c] | completely abolishes hIR-B binding |
| I: TNIPATLILQKHRCGSELADQYVQLCH-NH2 / II: GIV[Gla]VCCDNPCTVATLRTFCH (disulfide I:14-II:7, I:26-II:20, II:6-II:11; C-terminus assumed) [Con-Ins G7] | potent hIR-B binding; also recorded: low nanomolar binding |
